Vmax and Km data for one molecule are collected here from patent US6864076B2, “Antifungal proteins, DNA coding therefore, and hosts incorporating same” (Syngenta Mogen B.V., priority 1997, dated 2005).

Holding throughout (test): Oxidase activity (4-AAP/peroxidase, H2O2 production at 510 nm), Michaelis-Menten kinetics with glucose
The target in assay [1] is T1, MS59 carbohydrate oxidase from sunflower (Helianthus annuus), SEQ ID NO: 16 (Helianthus annuus, UniProt A0A9K3EIF7).
T1 sequence (A0A9K3EIF7 29-538): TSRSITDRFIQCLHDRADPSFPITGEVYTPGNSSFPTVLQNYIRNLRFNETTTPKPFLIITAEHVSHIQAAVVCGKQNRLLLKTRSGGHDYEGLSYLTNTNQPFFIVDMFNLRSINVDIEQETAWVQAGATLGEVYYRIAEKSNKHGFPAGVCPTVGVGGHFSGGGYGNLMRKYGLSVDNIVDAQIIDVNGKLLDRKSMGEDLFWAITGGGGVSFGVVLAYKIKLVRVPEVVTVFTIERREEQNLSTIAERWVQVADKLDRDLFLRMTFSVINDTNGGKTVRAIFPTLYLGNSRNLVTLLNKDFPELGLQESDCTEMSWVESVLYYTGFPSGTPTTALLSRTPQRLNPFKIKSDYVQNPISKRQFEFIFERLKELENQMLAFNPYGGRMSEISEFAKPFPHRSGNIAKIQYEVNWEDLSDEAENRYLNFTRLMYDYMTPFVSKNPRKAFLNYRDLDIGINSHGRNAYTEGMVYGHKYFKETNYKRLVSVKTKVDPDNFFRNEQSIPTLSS
Format: biochemical, sunflower (Helianthus annuus cv. zebulon). To be noted: substrate glucose; 50 mM potassium phosphate pH 7.0, 25 μM FAD; 17 ng MS59 per assay; per mg protein. The method, then:
(§1) Oxidase activity was measured utilizing the reagent 4-amino-antipyrine (4-AAP), based on Gallo, 1981 (Gallo, Methods in Enzymology, 71:665-668, 1981). A reaction volume of 500 μl contained 50 mM potassium phosphate buffer pH 7.0, 25 μM FAD, 10 mM NaN3, 0.01% Triton X-100, 6 mM 2,4,6,tribromohydroxybenzoic acid, 2 mM 4-AAP, and 10 units horseradish peroxidase. Hydrogenperoxide production was measured at 510 nm. Known amounts of hydrogen peroxide were included for calibration.

For assay [2], the target named is T2, WL64 carbohydrate oxidase from lettuce (Lactuca sativa), SEQ ID NO: 58 (Lactuca sativa, UniProt Q8SA60).
T2 sequence (Q8SA60 28-540): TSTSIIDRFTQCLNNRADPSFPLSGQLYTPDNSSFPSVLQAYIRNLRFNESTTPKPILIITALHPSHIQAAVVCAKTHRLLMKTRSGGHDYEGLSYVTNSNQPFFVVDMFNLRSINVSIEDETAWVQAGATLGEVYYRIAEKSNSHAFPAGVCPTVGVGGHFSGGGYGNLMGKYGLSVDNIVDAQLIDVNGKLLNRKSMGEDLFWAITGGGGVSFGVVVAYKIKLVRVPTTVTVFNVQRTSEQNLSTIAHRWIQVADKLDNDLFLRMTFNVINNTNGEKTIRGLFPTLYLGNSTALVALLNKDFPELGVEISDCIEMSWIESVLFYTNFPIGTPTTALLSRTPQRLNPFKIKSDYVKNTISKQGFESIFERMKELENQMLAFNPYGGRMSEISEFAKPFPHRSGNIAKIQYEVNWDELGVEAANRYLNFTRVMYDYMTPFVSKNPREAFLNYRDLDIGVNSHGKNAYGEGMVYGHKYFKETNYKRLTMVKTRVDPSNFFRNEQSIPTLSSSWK
Format: biochemical, lettuce (Lactuca sativa cv. Lollo bionda). To be noted: substrate glucose; 50 mM potassium phosphate pH 7.0, 25 μM FAD; 29 ng WL64 per assay; per mg protein. The method, then: as §1

The target of assay [3] is glucose oxidase (GOX) from Aspergillus niger (Sigma, G 2133) (Aspergillus niger, UniProt P13006). Format: biochemical. To be noted: substrate glucose, 50 mM potassium phosphate pH 7.0, 25 μM FAD, 45 ng GOX per assay. The method, then: as §1
Sequence of glucose oxidase (GOX) from Aspergillus niger (Sigma, G 2133) (P13006 17-605): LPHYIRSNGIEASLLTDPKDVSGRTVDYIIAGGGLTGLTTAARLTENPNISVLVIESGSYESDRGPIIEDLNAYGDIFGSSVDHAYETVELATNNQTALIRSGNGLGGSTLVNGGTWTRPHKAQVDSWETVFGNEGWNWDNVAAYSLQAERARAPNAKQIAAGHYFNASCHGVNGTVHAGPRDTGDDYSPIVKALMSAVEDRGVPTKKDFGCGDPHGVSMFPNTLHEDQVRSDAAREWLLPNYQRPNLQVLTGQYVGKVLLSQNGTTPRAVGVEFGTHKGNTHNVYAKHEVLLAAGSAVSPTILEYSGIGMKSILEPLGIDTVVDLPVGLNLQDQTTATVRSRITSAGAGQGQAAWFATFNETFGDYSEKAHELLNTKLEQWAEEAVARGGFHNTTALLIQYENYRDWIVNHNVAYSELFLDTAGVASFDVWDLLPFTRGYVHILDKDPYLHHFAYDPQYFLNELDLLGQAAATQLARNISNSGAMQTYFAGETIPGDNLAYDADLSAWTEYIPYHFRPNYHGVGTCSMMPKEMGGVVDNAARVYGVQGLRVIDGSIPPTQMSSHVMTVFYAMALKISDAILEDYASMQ

As usually defined, the Km is the substrate concentration at which the rate is half of its maximum. `OC[C@H]1OC(O)[C@H](O)[C@@H](O)[C@@H]1O` (stereo partly shown) [Glucose, glucose]: the figures for the Vmax in assay [1], in assay [2] and in assay [3] (per mg protein) were 16.8 μmolH2O2/min/mg, 5.7 μmolH2O2/min/mg and 9.7 μmolH2O2/min/mg, respectively. The Km in assay [3] (Lineweaver-Burk) was found to be 359 µM.
